Assay: Solubility test: visual assessment of defects in the dried paint of the stabilized coating formulation
Type: physicochemical
From the text: Each coating formulation A was stabilized with 1.0 or 3.0 active % based on resin solids of Tinuvin® 1130 (UV absorber, BASF SE), Tinuvin® 9945-DW (N) or inventive examples samples.
Each coating formulation further contained 1,0 active % based on resin solids of Tinuvin® 123DW (N) (HALS, BASF SE).
The clear coat formulations were subsequently applied by brush onto a wood substrate (thickness: two layers à 100 g/m^2 resulting after drying at room temperature in a final dry film thickness of ˜40 μm). The clear coat formulations were subsequently applied by draw-down onto a glass plate (thickness: one layer b 200 g/m^2 resulting after drying at room temperature in a final dry film thickness of ˜40 μm).
The solubility of above-described coating formulation containing one of the compounds obtained in examples 3, 11 and 27 in the amount given above was tested. The solubility was visually assessed qualitatively by presence of defects in the dried paint.

Presence of defects: no
Substance: Tinuvin® 1130 [Example 27]
